Measurements reported in patent US7160685B2, “Diagnostic reagents for human cytomegalovirus and methods of use” (priority 1996, dated 2007).
Where no end group is shown, it is not given here. [ ]: non-standard residue; d: D form. The star is where a group is joined. Palmitoyl = CCCCCCCCCCCCCCCC(=O)*; Cha = N[C@@H](CC1CCCCC1)C(=O)O

Tests used:
[1] = test system: peptide-loaded T2 cells, EBVLCL targets infected with pp65Vac, and HCMV-infected fibroblasts; test: lipidated peptides with and without IFA in transgenic HLA A2.1 mouse, CRA; format: in vivo; details: peptide together with PADRE, with versus without emulsification in IFA
Procedure: Either one or two palmitic acid moieties were attached to the amino terminus of the 495 peptide, and a series of immunization studies were conducted in the transgenic HLA A2.1 mouse.
Separate mice were immunized with unmodified pp65495-503, and either the monolipidated or dilipidated forms of the peptide together with the PADRE epitope. Because it has been previously shown that lipidated peptides will stimulate immunity without co-administration of Freund's adjuvant (H. Schild et al., Eur. J. Immunol. 21:2649–2654 (1991)), immunization of mice with and without emulsifying the peptides in IFA was compared. In a procedure similar to the procedure described in Example 9 above, twelve days post inoculation the mice were splenectomized and the spleen cell population was restimulated twice in vitro. The splenic effectors were then tested in a chromium release assay with peptide-loaded T2 cells, EBVLCL targets infected with pp65Vac, and HCMV-infected fibroblasts (D. J. Diamond et al., Blood 90 (5):1751–1767 (1997)). […] (See FIGS. 1–3)

peptide loaded T2 cells = test: immunization of HLA A2.1 transgenic mice, splenic effectors tested on peptide loaded T2 cells; format: in vivo, mouse; details: 50 μg peptide with 20 μg PADRE in IFA s.c., two in vitro restimulation cycles
Text: A transgenic mouse model lacking prior HCMV exposure, the HLA A2.1 mouse (E. J. Bernhard et al., J. Exp. Med. 168:1157–1162 (1988)), was employed to test whether the 495 peptide could stimulate CTLs lacking prior virus exposure and function as a vaccine. These experiments involved in vitro analysis using mouse and human cell targets, either infected with viruses or primed with the peptide of SEQ ID NO:1 or a non-specific control peptide.
Three mice were immunized subcutaneously at the base of the tail with 50 μg of the 495 peptide (pp65495-503) or peptide p53149-157 from p53 (M. Theobald et al., Proc. Natl. Acad. Sci. U.S.A. 92:11993–11997 (1995)) together with 20 μg of the polyclonal helper T lymphocyte (HTL) peptide (PADRE; SEQ ID NO:29) (J. Alexander et al., Immunity. 1:751–761 (1994)) emulsified in IFA (Incomplete Freund's Adjuvant). After twelve days, spleens were removed from immunized mice, a splenic suspension was made, and the effector cells were restimulated for one week using p53149-157 or pp65495-503 peptide sensitized syngeneic lipopolysaccharide-treated splenic blast cells (P. A. Wentworth et al., Eur. J. Immunol. 26:97–101 (1996)). Thereafter, for subsequent in vitro stimulations, the stimulator cells were Jurkat A2.1 cells, prepared by mild acid treatment and subsequent loading of peptides (Z. Yu et al., Journal of Surgical Research 69:337–343 (1997)). […]

HLA A or B Allele = format: cell-based, human; details: for HLA A or B Allele Specificity: and subtypes where given
[2] = test system: peptide-sensitized targets; test: single component lipid-HTL-CTL vaccine in transgenic HLA A2.1 mice, peptide-sensitized targets; format: in vivo, mouse; details: for lysis of p53149-157 sensitized targets by spleen cells of immunized mice / lysis of pp65495-503 peptide sensitized targets by spleen cells of immunized mice: 100 nmoles s.c. in 25% DMSO/PBS with 2.5% hexafluoroisopropanol
Procedure: (§1) Molecule A (SEQ ID NO:37) is a vaccine that has the capability of working in mice and humans, whereas molecule B (SEQ ID NO:38) should only be functional in mice. One hundred nanomoles of each of these vaccine peptides in 25% dimethysulfoxide in phosphate buffered saline with 2.5% hexafluoroisopropanol were injected s.c. into separate transgenic HLA A2.1 mice.
(§2) The methods referred to in Examples 9 and 10 were used to derive spleen cell populations containing cells which were specific against pp65 and HCMV. The spleen cells from immunized mice were tested for recognition and cytolysis against specific and non-specific peptide-sensitized targets, HCMV infected and non-infected HLA A*0201 and HLA-mismatched fibroblast targets. […] This stimulative effect of the booster is in agreement with B. Livingston et al., J. Immunol. 159:1383–1392 (1997)).

[3] = test system: HCMV infected and non-infected HLA A*0201 and HLA-mismatched fibroblast targets; test: single component lipid-HTL-CTL vaccine in transgenic HLA A2.1 mice, fibroblast targets; format: in vivo, mouse; details: 100 nmoles s.c., no adjuvant
Procedure: as §1, §2

| Substance | Number of Test Cell Lines (independent cell lines of the same restriction which were sensitized) (HLA A or B Allele) | HLA A or B Allele Specificity (HLA A or B Allele) | further results |
| --- | --- | --- | --- |
| 1 PALMITIC ACID-KSS-NLVPMVATV-OH (Palmitoyl-KSSNLVPMVATV-OH; SMILES CCCCCCCCCCCCCCCC(=O)N[C@@H](CCCCN)C(=O)N[C@@H](CO)C(=O)N[C@@H](CO)C(=O)N[C@@H](CC(N)=O)C(=O)N[C@@H](CC(C)C)C(=O)N[C@H](C(=O)N1CCC[C@H]1C(=O)N[C@@H](CCSC)C(=O)N[C@H](C(=O)N[C@@H](C)C(=O)N[C@H](C(=O)N[C@H](C(=O)O)C(C)C)[C@@H](C)O)C(C)C)C(C)C) [SEQ ID NO:31] | – | – | immune response induced (CRA of splenic effectors) [1]: weaker immune response |
| p53149-157: peptide p53149-157 from human p53 which binds to HLA A*0201, control peptide (STPPPGTRV; UniProt P04637 149-157, looked up, fragment) | – | – | recognition of T2 cells loaded with the immunizing peptide by murine splenic effectors (peptide loaded T2 cells): substantial recognition; recognition of T2 cells loaded with the non-immunizing peptide (peptide loaded T2 cells): without recognition of the non-immunizing peptide |
| FVFPTKDVALR (listed as Human cytomegalovirus) [SEQ ID NO: 5] | 3 | HLA A*6801 | – |
| EFFWDANDIY (listed as Human cytomegalovirus) [SEQ ID NO: 13] | 2 | HLA B*44XX | – |
| TPRVTGGGAM (listed as Human cytomegalovirus) [SEQ ID NO: 7] | 5 | HLA B7 | – |
| (Pam)2-KSSISQAVHAAHAEINEAAANLVPMVATV (also: two palmitoyl groups on the N-terminal lysine, exact amine positions not given here) [SEQ ID NO:38] | – | – | lysis of p53149-157 sensitized targets by spleen cells of immunized mice ([2]; no adjuvant): ineffective; lysis of pp65495-503 peptide sensitized targets by spleen cells of immunized mice ([2]; no adjuvant): effectively lysed; lysis of HCMV-infected HLA A*0201 fibroblasts [3]: effectively lysed; lysis of uninfected or HLA-mismatched fibroblasts [3]: not recognized or lysed |
| SVLGPISGHVLK [SEQ ID NO: 11] | 5 | HLA A*1101 | – |
| (Pam)2-KSSAKXVAAWTLKAAANLVPMVATV (KSSAK[Cha]VAAWTLKAAANLVPMVATV; not fully specified (residue 1, N-terminus); printed as (Pam)2-KSSAKXVAAWTLKAAANLVPMVATV; also: (Pam)2- two palmitoyl groups at N-terminal end, attachment not given here) [SEQ ID NO:37] | – | – | immune response after single immunization ([2]; 50 nmole, single immunization): not effective; immune response after second immunization (booster) ([2]; 50 nmole, with booster): detectable immune response; lysis of p53149-157 sensitized targets by spleen cells of immunized mice ([2]; no adjuvant): ineffective; lysis of pp65495-503 peptide sensitized targets by spleen cells of immunized mice ([2]; no adjuvant): effectively lysed; relative potency of molecules A and B ([2]; 100 nmoles s.c., no adjuvant): more potent of the two; lysis of HCMV-infected HLA A*0201 fibroblasts [3]: effectively lysed; lysis of uninfected or HLA-mismatched fibroblasts [3]: not recognized or lysed |
| FTSQYRIQGKL (listed as Human cytomegalovirus) [SEQ ID NO: 14] | 4 | HLA A*2402 | – |
| RPHERNGFTVL (listed as Human cytomegalovirus) [SEQ ID NO: 10] | 5 | HLA B7 | – |
| PTFTSQYRIQGKL (listed as Human cytomegalovirus) [SEQ ID NO: 12] | 3 | HLA B*3801/2 | – |
| KSS-NLVPMVATV-OH (KSSNLVPMVATV-OH) [SEQ ID NO:30] | – | – | immune response induced (CRA of splenic effectors) [1]: no activity unless emulsified in IFA |
| FPTKDVAL [SEQ ID NO: 9] | 3 | HLA B*3502, | – |
